Measurements: ChEMBL document CHEMBL1158556, “Design of pentapeptidic BACE1 inhibitors with carboxylic acid bioisosteres at P1' and P4 positions” (Bioorg Med Chem, 2010)

Key:
Beta-secretase 1 [1] = target: T1, Beta-secretase 1 (Homo sapiens, UniProt P56817); experiment: Inhibition of human BACE1 at 2 uM by FRET assay
Beta-secretase 1 [2] = target: T1, Beta-secretase 1; experiment: Inhibition of human BACE1 at 0.2 uM by FRET assay
Beta-secretase 1 [3] = target: T1, Beta-secretase 1; experiment: Inhibition of human BACE1 by FRET assay

T1 sequence (P56817 whole entry): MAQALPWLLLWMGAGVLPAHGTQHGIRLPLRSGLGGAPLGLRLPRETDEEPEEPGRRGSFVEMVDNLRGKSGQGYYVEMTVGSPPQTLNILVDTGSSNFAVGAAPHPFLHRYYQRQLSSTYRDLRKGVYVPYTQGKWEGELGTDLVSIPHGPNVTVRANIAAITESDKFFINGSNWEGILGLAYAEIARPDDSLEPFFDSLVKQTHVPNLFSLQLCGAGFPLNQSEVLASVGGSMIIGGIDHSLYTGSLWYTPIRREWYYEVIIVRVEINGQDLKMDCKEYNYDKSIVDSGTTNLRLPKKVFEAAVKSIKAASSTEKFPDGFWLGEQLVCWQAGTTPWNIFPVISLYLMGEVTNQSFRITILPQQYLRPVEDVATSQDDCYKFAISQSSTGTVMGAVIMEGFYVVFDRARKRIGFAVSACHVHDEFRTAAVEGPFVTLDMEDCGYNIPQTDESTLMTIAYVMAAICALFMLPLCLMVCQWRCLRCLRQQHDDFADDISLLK

CC(C)[C@H](NC(=O)[C@@H](N)CNC(=O)c1nc[nH]n1)C(=O)N[C@@H](CC1CCCCC1)C(=O)N[C@@H](Cc1ccccc1)[C@@H](O)C(=O)Nc1cccc(-c2nn[nH]n2)c1
inhibition (Beta-secretase 1 [1]): 94%
inhibition (Beta-secretase 1 [2]): 69%

CC(C)C[C@H](NC(=O)[C@@H](NC(=O)[C@@H](N)CNC(=O)c1cc(O)ccc1O)C(C)C)C(=O)N[C@@H](Cc1ccccc1)[C@@H](O)C(=O)Nc1cccc(-c2noc(=S)[nH]2)c1
inhibition (Beta-secretase 1 [1]): > 99%
inhibition (Beta-secretase 1 [2]): 93%

CC(C)C[C@H](NC(=O)[C@@H](NC(=O)[C@@H](N)CNC(=O)c1nn[nH]n1)C(C)C)C(=O)N[C@@H](Cc1ccccc1)[C@@H](O)C(=O)Nc1cccc(-c2nn[nH]n2)c1
inhibition (Beta-secretase 1 [1]): > 99%

CC(C)C[C@H](NC(=O)[C@@H](NC(=O)[C@@H](N)CNC(=O)c1cc(O)ccc1O)C(C)C)C(=O)N[C@@H](Cc1ccccc1)[C@@H](O)C(=O)Nc1cccc(-c2n[nH]c(=S)n2C)c1
inhibition (Beta-secretase 1 [1]): 94%
inhibition (Beta-secretase 1 [2]): 64%

CC(C)[C@H](NC(=O)[C@@H](N)CNC(=O)c1nn[nH]n1)C(=O)N[C@@H](CC1CCCCC1)C(=O)N[C@@H](Cc1ccccc1)[C@@H](O)C(=O)Nc1cccc(-c2nn[nH]n2)c1
inhibition (Beta-secretase 1 [1]): > 99%

CC(C)C[C@H](NC(=O)[C@@H](NC(=O)[C@@H](N)CNC(=O)c1[nH]c(=O)[nH]c(=O)c1F)C(C)C)C(=O)N[C@@H](Cc1ccccc1)[C@@H](O)C(=O)Nc1cccc(-c2noc(=O)[nH]2)c1
inhibition (Beta-secretase 1 [1]): > 99%
inhibition (Beta-secretase 1 [2]): 96%
IC50 (Beta-secretase 1 [3]): 0.0079 µM

CC(C)[C@H](NC(=O)[C@@H](N)CNC(=O)c1[nH]c(=O)[nH]c(=O)c1F)C(=O)N[C@@H](CC1CCCCC1)C(=O)N[C@@H](Cc1ccccc1)[C@@H](O)C(=O)Nc1cccc(-c2nn[nH]n2)c1
inhibition (Beta-secretase 1 [1]): > 99%

CC(C)C[C@H](NC(=O)[C@@H](NC(=O)[C@@H](N)CNC(=O)c1cc(O)ccc1O)C(C)C)C(=O)N[C@@H](Cc1ccccc1)[C@@H](O)C(=O)Nc1cccc(-c2noc(=O)[nH]2)c1
inhibition (Beta-secretase 1 [1]): > 99%
inhibition (Beta-secretase 1 [2]): 92%

CC(C)C[C@H](NC(=O)[C@@H](NC(=O)[C@@H](N)CNC(=O)c1[nH]c(=O)[nH]c(=O)c1F)C(C)C)C(=O)N[C@@H](Cc1ccccc1)[C@@H](O)C(=O)Nc1cccc(-c2nsc(=O)[nH]2)c1
inhibition (Beta-secretase 1 [1]): 99%
inhibition (Beta-secretase 1 [2]): 93%

CC(C)C[C@H](NC(=O)[C@@H](NC(=O)[C@@H](N)CNC(=O)c1nc[nH]n1)C(C)C)C(=O)N[C@@H](Cc1ccccc1)[C@@H](O)C(=O)Nc1cccc(-c2nn[nH]n2)c1
inhibition (Beta-secretase 1 [1]): 91%
inhibition (Beta-secretase 1 [2]): 58%

CC(C)C[C@H](NC(=O)[C@@H](NC(=O)[C@@H](N)CNC(=O)c1[nH]c(=O)[nH]c(=O)c1F)C(C)C)C(=O)N[C@@H](Cc1ccccc1)[C@@H](O)C(=O)Nc1cccc(-c2noc(=S)[nH]2)c1
inhibition (Beta-secretase 1 [1]): > 99%
inhibition (Beta-secretase 1 [2]): 95%
IC50 (Beta-secretase 1 [3]): 0.0102 µM

CC(C)C[C@H](NC(=O)[C@@H](NC(=O)[C@@H](N)CNC(=O)c1cc(O)ccc1O)C(C)C)C(=O)N[C@@H](Cc1ccccc1)[C@@H](O)C(=O)Nc1cccc(-c2n[nH]c(=S)o2)c1
inhibition (Beta-secretase 1 [1]): 99%
inhibition (Beta-secretase 1 [2]): 89%

CC(C)C[C@H](NC(=O)[C@@H](NC(=O)[C@@H](N)CNC(=O)c1cc(O)ccc1O)C(C)C)C(=O)N[C@@H](Cc1ccccc1)[C@@H](O)C(=O)Nc1cccc(-c2nc(=S)o[nH]2)c1
IC50 (Beta-secretase 1 [3]): 0.0106 µM

CC(C)C[C@H](NC(=O)[C@@H](NC(=O)[C@@H](N)CNC(=O)c1[nH]c(=O)[nH]c(=O)c1F)C(C)C)C(=O)N[C@@H](Cc1ccccc1)[C@@H](O)C(=O)Nc1cccc(-c2nn[nH]n2)c1
inhibition (Beta-secretase 1 [1]): > 99%

CC(C)C[C@H](NC(=O)[C@@H](NC(=O)[C@@H](N)CNC(=O)c1cc(O)ccc1O)C(C)C)C(=O)N[C@@H](Cc1ccccc1)[C@@H](O)C(=O)Nc1cccc(-c2nc(=O)o[nH]2)c1
IC50 (Beta-secretase 1 [3]): 0.01 µM

CC(C)[C@H](NC(=O)[C@@H](N)CNC(=O)c1c[nH]cn1)C(=O)N[C@@H](CC1CCCCC1)C(=O)N[C@@H](Cc1ccccc1)[C@@H](O)C(=O)Nc1cccc(-c2nn[nH]n2)c1
inhibition (Beta-secretase 1 [1]): 83%
inhibition (Beta-secretase 1 [2]): 45%

CC(C)C[C@H](NC(=O)[C@@H](NC(=O)[C@@H](N)CNC(=O)c1[nH]c(=O)[nH]c(=O)c1F)C(C)C)C(=O)N[C@@H](Cc1ccccc1)[C@@H](O)C(=O)Nc1cccc(-c2n[nH]c(=S)n2C)c1
inhibition (Beta-secretase 1 [1]): 99%
inhibition (Beta-secretase 1 [2]): 92%

CC(C)C[C@H](NC(=O)[C@@H](NC(=O)[C@@H](N)CNC(=O)c1[nH]c(=O)[nH]c(=O)c1F)C(C)C)C(=O)N[C@@H](Cc1ccccc1)[C@@H](O)C(=O)Nc1cccc(-c2n[nH]c(=S)o2)c1
inhibition (Beta-secretase 1 [1]): > 99%
inhibition (Beta-secretase 1 [2]): 95%

CC(C)C[C@H](NC(=O)[C@@H](NC(=O)[C@@H](N)CNC(=O)c1cc(O)ccc1O)C(C)C)C(=O)N[C@@H](Cc1ccccc1)[C@@H](O)C(=O)Nc1cccc(-c2nsc(=O)[nH]2)c1
inhibition (Beta-secretase 1 [1]): 99%
inhibition (Beta-secretase 1 [2]): 92%

CC(C)C[C@H](NC(=O)[C@@H](NC(=O)[C@@H](N)CNC(=O)c1c[nH]cn1)C(C)C)C(=O)N[C@@H](Cc1ccccc1)[C@@H](O)C(=O)Nc1cccc(-c2nn[nH]n2)c1
inhibition (Beta-secretase 1 [1]): 87%
inhibition (Beta-secretase 1 [2]): 50%
